Measurements from patent US9586951B2 (FUJIFILM Corporation, priority 2013, dated 2017).

Target: T1, ATM (Homo sapiens, UniProt Q13315)
T1 construct: detecting phosphorylation of Chk2 in a human non-small cell lung cancer cell line NCI-H460 (ATCC company); host or cells: NCI-H460 human non-small cell lung cancer cells
Experiment: ATM inhibition test (phosphorylation of Chk2 generated by ionizing radiation, AlphaScreen SureFire)
Type: cell-based
Settings: phosphorylated Chk2 in NCI-H460 cells, ionizing radiation 8Gy, 1 hour after test compound treatment; read-out: ATM inhibitory activity
Experimental: ATM inhibitory effects of a test compound were measured by detecting phosphorylation of Chk2 in a human non-small cell lung cancer cell line NCI-H460 (ATCC company). The level of phosphorylated Chk2 generated by an ionizing radiation was measured using AlphaScreen SureFire (TGR Biosciences).
The cells were seeded by 40000 cells per well in 96-well CellBIND® plates (Corning International Inc.), and incubated at 37° C. overnight in 5% CO2. […] 1 hour after a test compound treatment, half of the plates were irradiated with ionizing radiation 8Gy (Faxitron Bioptics, LLC, RX-650 type). The plates irradiated with ionizing radiation and the plates not being irradiated with ionizing radiation were incubated at 37° C. for 1 hour in 5% CO2. […] Subsequent operations were performed according to the instruction book of AlphaScreen SureFire. […] The inhibition ratio was calculated by the following equation. Inhibition ratio (%)=((signal of drug untreated wells in the plates irradiated with ionizing radiation−signal of drug treated wells in the plates irradiated with ionizing radiation)/(signal of drug untreated wells in the plates irradiated with ionizing radiation−signal of drug untreated wells in the plates not being irradiated with ionizing radiation))×100

T1 sequence (Q13315 whole entry): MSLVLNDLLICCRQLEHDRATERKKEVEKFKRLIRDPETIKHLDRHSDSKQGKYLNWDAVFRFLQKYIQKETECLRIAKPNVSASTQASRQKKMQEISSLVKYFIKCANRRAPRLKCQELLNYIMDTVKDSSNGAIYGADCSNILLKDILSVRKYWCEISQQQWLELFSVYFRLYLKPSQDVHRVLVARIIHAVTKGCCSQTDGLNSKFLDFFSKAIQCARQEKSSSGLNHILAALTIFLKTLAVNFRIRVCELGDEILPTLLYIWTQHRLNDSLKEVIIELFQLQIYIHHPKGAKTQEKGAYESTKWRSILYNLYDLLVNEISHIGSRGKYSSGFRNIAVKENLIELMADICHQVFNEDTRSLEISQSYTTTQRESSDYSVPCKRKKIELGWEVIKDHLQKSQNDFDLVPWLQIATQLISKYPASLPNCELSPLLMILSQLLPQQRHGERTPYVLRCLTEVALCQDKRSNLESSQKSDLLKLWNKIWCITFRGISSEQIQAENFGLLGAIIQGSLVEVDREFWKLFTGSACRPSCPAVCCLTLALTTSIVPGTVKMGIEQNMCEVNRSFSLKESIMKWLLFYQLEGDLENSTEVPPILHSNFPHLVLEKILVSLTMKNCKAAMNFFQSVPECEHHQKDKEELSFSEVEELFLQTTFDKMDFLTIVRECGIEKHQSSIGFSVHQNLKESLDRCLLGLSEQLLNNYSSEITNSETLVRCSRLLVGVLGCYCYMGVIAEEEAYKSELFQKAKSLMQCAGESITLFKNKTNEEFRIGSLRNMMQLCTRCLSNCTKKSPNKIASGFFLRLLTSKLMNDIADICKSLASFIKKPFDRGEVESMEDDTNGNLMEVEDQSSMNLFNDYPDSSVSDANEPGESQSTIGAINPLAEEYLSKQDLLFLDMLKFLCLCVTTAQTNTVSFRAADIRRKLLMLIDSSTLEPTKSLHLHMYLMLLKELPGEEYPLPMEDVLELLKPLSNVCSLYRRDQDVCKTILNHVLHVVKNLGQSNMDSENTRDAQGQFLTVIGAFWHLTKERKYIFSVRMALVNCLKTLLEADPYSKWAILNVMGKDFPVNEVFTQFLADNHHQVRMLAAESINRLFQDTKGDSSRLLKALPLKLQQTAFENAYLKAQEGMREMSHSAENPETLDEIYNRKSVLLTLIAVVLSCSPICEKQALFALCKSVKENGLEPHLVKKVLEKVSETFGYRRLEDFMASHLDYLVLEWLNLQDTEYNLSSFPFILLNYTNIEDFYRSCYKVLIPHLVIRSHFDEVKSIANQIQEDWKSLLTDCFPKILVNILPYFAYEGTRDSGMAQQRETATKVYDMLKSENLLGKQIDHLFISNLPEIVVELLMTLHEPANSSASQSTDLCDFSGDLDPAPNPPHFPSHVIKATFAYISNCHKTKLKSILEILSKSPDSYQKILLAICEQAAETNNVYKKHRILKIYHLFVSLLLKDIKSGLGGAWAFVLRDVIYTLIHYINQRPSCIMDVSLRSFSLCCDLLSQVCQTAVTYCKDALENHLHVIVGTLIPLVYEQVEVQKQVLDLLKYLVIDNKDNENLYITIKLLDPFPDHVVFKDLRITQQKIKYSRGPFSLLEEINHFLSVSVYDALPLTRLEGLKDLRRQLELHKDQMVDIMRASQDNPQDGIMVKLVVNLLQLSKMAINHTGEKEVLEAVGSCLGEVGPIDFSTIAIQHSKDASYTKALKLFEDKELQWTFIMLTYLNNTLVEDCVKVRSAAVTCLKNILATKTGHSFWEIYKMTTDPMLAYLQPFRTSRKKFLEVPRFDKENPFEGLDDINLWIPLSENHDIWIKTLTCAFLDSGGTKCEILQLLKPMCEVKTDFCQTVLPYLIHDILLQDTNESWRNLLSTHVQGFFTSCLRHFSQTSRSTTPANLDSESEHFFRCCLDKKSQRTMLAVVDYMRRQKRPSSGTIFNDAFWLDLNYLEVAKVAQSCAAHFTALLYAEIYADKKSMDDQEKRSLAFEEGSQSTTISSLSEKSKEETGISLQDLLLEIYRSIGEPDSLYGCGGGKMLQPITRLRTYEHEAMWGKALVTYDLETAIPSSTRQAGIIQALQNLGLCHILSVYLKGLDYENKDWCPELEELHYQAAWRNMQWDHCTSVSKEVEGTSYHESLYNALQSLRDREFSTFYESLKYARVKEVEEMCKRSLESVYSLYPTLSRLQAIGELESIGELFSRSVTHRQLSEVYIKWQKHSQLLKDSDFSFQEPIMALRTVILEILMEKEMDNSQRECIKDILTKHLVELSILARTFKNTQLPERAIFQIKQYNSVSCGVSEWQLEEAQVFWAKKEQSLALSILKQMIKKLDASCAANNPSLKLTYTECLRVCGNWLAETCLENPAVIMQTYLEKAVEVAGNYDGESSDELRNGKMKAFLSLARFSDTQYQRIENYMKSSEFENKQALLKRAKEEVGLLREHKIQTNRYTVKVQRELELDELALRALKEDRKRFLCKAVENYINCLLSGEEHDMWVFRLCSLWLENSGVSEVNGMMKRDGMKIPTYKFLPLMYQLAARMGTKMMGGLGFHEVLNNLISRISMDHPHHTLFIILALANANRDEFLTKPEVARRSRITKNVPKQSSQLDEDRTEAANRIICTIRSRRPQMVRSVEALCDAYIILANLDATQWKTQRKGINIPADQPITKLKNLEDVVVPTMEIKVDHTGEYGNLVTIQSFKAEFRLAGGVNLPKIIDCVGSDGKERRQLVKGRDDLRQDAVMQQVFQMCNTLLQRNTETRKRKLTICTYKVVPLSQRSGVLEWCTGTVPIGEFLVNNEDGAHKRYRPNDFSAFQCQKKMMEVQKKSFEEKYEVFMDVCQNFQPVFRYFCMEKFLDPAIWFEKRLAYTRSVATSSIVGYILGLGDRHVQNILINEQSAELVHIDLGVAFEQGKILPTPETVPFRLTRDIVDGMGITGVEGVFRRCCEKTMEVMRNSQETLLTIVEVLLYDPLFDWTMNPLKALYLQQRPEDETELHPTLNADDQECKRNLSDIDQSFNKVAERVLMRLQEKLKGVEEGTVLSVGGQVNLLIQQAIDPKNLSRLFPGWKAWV

SMILES	IC50
Cc1cccc(C(Nc2ccc3c(c2)Sc2cccc(-c4cc(N5CCOCC5)cc(=O)[nH]4)c2S3)C2CCCNC2)n1 (centres unmarked) [Example 1-20-13, 6-(7-(((6-Methylpyridin-2-yl)(piperidin-3-yl)methyl)amino)thianthren-1-yl)-4-morpholino pyridin-2(1H)-one]	500 to 2000 nM
Cc1cccc(CCN2CCC(Nc3ccc4c(c3)Cc3cccc(-c5cc(N6CCOCC6)cc(=O)[nH]5)c3O4)CC2)c1 [Example 2-30-8, 6-(7-((1-(3-Methylphenethyl)piperidin-4-yl)amino)-9H-xanthen-4-yl)-4-morpholino pyridin-2 (1H)-one]	500 to 2000 nM
O=C(CN1CCCOCC1)Nc1ccc2c(c1)Sc1cccc(-c3cc(N4CCOCC4)cc(=O)[nH]3)c1S2 [Example 1-7-3, N-(6-(4-morpholino-6-oxo-1,6-dihydropyridin-2-yl)thianthren-2-yl)-2-(1,4-oxazepan-4-yl)acetamide]	500 to 2000 nM
Nc1ncc(CNc2ccc3c(c2)Cc2cccc(-c4cc(N5CCOCC5)cc(=O)[nH]4)c2O3)cn1 [Example 2-2-15, 6-(7-(((2-Aminopyrimidin-5-yl)methyl)amino)-9H-xanthen-4-yl)-4-morpholino pyridin-2(1H)-one]	500 to 2000 nM
O=c1cc(N2CCOCC2)cc(-c2cccc3c2Sc2ccc(NCc4cccnn4)cc2C3)[nH]1 [Example 3-8-12]	500 to 2000 nM
O=c1cc(N2CCOCC2)cc(-c2cccc3c2Sc2ccccc2S3)[nH]1 [Example 1-53, 4-morpholino-6-(thianthren-1-yl)pyridin-2(1H)-one]	500 to 2000 nM
Cc1ccnc(C(C)Nc2ccc3c(c2)Sc2cccc(-c4cc(N5CCOCC5)cc(=O)[nH]4)c2S3)n1 (single isomer, unassigned) [Example 1-12-144-2, 6-(7-((1-(4-methylpyrimidin-2-yl)ethyl)amino)thianthren-1-yl)-4-morpholinopyridin-2(1H)-one]	100 to 500 nM

Results, then the compound that gave them:

IC50	SMILES
100 to 500 nM	CCN(CC)CC(Nc1ccc2c(c1)Sc1cccc(-c3cc(N4CCOCC4)cc(=O)[nH]3)c1S2)c1cnc(C)cn1 (centres unmarked) [Example 1-33, 6-(7-((2-(diethylamino)-1-(5-methylpyrazin-2-yl)ethyl)amino)thianthren-1-yl)-4-morpholinopyridin-2(1H)-one]
< 100 nM	O=c1cc(N2CCOCC2)cc(-c2cccc3c2Oc2ccc(NCc4cnc5occc5c4)cc2C3)[nH]1 [Example 2-2-44, 6-(7-((Furo[2,3-b]pyridin-5-ylmethyl)amino)-9H-xanthen-4-yl)-4-morpholino pyridin-2(1H)-one]
100 to 500 nM	O=c1cc(N2CCOCC2)cc(-c2cccc3c2Oc2ccc(NC4CCCN(CCc5ccccc5)C4)cc2S3)[nH]1 (centres unmarked) [Example 4-6-3]
100 to 500 nM	COc1ccc(CCN2CCC(Nc3ccc4c(c3)Cc3cccc(-c5cc(N6CCOCC6)cc(=O)[nH]5)c3O4)CC2)cc1 [Example 2-30-2, 6-(7-((1-(4-Methoxyphenethyl)piperidin-4-yl)amino)-9H-xanthen-4-yl)-4-morpholino pyridin-2 (1H)-one]
100 to 500 nM	O=c1cc(N2CCOCC2)cc(-c2cccc3c2Sc2ccc(NC4CCCN(Cc5ccccn5)C4)cc2S3)[nH]1 (centres unmarked) [Example 1-24-3, 4-Morpholino-6-(7-((1-(pyridin-2-ylmethyl)piperidin-3-yl)amino)thianthren-1-yl)pyridin-2 (1H)-one]
100 to 500 nM	O=c1cc(N2CCOCC2)cc(-c2cccc3c2Oc2ccc(N[C@H]4CCN(Cc5ccccc5)C[C@@H]4O)cc2C3)[nH]1 (relative stereo) [Example 2-33, 6-(7-((trans-1-benzyl-3-hydroxypiperidin-4-yl)amino)-9H-xanthen-4-yl)-4-morpholinopyridin-2(1H)-one]
100 to 500 nM	CC(CN1CC2(COC2)C1)Nc1ccc2c(c1)Sc1cccc(-c3cc(N4CCOCC4)cc(=O)[nH]3)c1S2 (centres unmarked) [Example 1-43-2, 6-(7-((1-(2-Oxa-6-azaspiro [3.3]heptan-6-yl)propan-2-yl)amino)thianthren-1-yl)-4-morpholino pyridin-2(1H)-one]
